The subject of series [1] is Brassica rapa subsp. oleifera. The series is described as follows: Growth inhibition of Brassica rapa subsp. oleifera assessed as chlorophyll b level at 3 x 10^-4 M after 7 days. The class given is functional. The arrangement: scale not given: the % may be the effect or the level left.
In series [2] the test system is Brassica rapa subsp. oleifera. The series is described as follows: Growth inhibition of Brassica rapa subsp. oleifera assessed as chlorophyll b level at 1 x 10^-4 M after 7 days. The class given is functional. Set-up: scale not given: the % may be the effect or the level left.
Series [3] deals with Brassica rapa subsp. oleifera. The series can be described thus: Growth inhibition of Brassica rapa subsp. oleifera assessed as chlorophyll a level at 3 x 10^-5 M after 7 days. In kind it is functional. Set-up: scale not given: the % may be the effect or the level left.
For series [4], the system named is Brassica rapa subsp. oleifera. The series can be described thus: Growth inhibition of Brassica rapa subsp. oleifera assessed as chlorophyll a level at 5 x 10^-5 M after 7 days. The class given is functional. The arrangement: scale not given: the % may be the effect or the level left.
A short description of series [5]: Toxicity in ip dosed Mus musculus ddY (mouse) assessed as mortality after 1 to 7 days. The class given is organism-based. The following applies: in vivo.
The subject of series [6] is Brassica rapa subsp. oleifera. The series can be described thus: Growth inhibition of Brassica rapa subsp. oleifera assessed as total chlorophyll level at 5 x 10^-5 M after 7 days. The class given is functional. The arrangement: scale not given: the % may be the effect or the level left.
In series [7] the test system is Brassica rapa subsp. oleifera. The series can be described thus: Growth inhibition of Brassica rapa subsp. oleifera assessed as total chlorophyll level at 3 x 10^-5 M after 7 days. In kind it is functional. Set-up: scale not given: the % may be the effect or the level left.
In series [8] the test system is Brassica rapa subsp. oleifera. The series can be described thus: Growth inhibition of Brassica rapa subsp. oleifera assessed as total chlorophyll level at 1 x 10^-4 M after 7 days. The class given is functional. The arrangement: scale not given: the % may be the effect or the level left.
The test system of series [9] is Brassica rapa subsp. oleifera. The series is described as follows: Growth inhibition of Brassica rapa subsp. oleifera assessed as total chlorophyll level at 3 x 10^-4 M after 7 days. In kind it is functional. The arrangement: scale not given: the % may be the effect or the level left.
Series [10] concerns Brassica rapa subsp. oleifera. The series is described as follows: Growth inhibition of Brassica rapa subsp. oleifera assessed as root growth at 3 x 10^-5 M after 7 days. In kind it is functional.
Series [11] relates to Brassica rapa subsp. oleifera. The series is described as follows: Growth inhibition of Brassica rapa subsp. oleifera assessed as root growth at 5 x 10^-5 M after 7 days. In kind it is functional.
The test system of series [12] is Brassica rapa subsp. oleifera. The series is described as follows: Growth inhibition of Brassica rapa subsp. oleifera assessed as root growth at 1 x 10^-4 M after 7 days. The class given is functional.
Series [13] relates to Brassica rapa subsp. oleifera. The series can be described thus: Growth inhibition of Brassica rapa subsp. oleifera assessed as root growth at 3 x 10^-4 M after 7 days. The class given is functional.
The test system of series [14] is Brassica rapa subsp. oleifera. The series can be described thus: Growth inhibition of Brassica rapa subsp. oleifera assessed as chlorophyll b level at 3 x 10^-5 M after 7 days. Set-up: scale not given: the % may be the effect or the level left. In kind it is functional.
Series [15] has as its system Brassica rapa subsp. oleifera. The series is described as follows: Growth inhibition of Brassica rapa subsp. oleifera assessed as chlorophyll b level at 5 x 10^-5 M after 7 days. In kind it is functional. The arrangement: scale not given: the % may be the effect or the level left.
The subject of series [16] is Brassica rapa subsp. oleifera. The series is described as follows: Growth inhibition of Brassica rapa subsp. oleifera assessed as chlorophyll a level at 1 x 10^-4 M after 7 days. In kind it is functional. Set-up: scale not given: the % may be the effect or the level left.
Series [17] relates to Brassica rapa subsp. oleifera. The series is described as follows: Growth inhibition of Brassica rapa subsp. oleifera assessed as chlorophyll a level at 3 x 10^-4 M after 7 days. Set-up: scale not given: the % may be the effect or the level left. In kind it is functional.

By LD50 is commonly meant the dose expected to kill half of the subjects tested.

Molecules are shown by their SMILES.

Turning to `CC(=O)NN1C(=O)CSC1=S` [N-ACETYLAMINORHODANINE], the Activity in [1] came out at 4.23%; in series [2], 5.41%; in [3], 13.68%; in [4], 11.5%; in [6], 17.47%; in [7] it was 20.31%. The Activity in series [8] worked out at 16.24%; in series [9] it was 13.58%; in series [12], 47.4 mm; in [13], 39.3 mm; in [14], 6.65%; in [15], 5.99%. Moreover, the Activity in series [16] amounted to 10.84%; in series [17], 9.35%. Also, the LD50 in series [5] was above 1000 mg/kg. Further, the Root length in [10] stood at 47 mm; in series [11], 46.5 mm.
For the molecule `O=C(NN1C(=O)CSC1=S)c1ccccc1` [N-BENZOYLAMINORHODANINE], the Activity in series [1] worked out at 3.1%; in series [2], 6.15%; in [3], 14.44%; in series [4], 13.43%; in [6] it was 19.54%; in series [7], 21.24%. Also, the Activity in [8] turned out to be 17.6%; in series [9], 9.62%; in [12] it was 33.8 mm; in series [13], 19.2 mm; in series [14] it was 6.82%; in series [15], 6.12%. Also, the Activity in series [16] is on record as 11.46%; in series [17] it was 6.53%. Besides, in series [5], the LD50 was above 1000 mg/kg. The Root length in series [10] was 79.6 mm; in [11] it was 73.3 mm.

Values taken from ChEMBL document CHEMBL3044763, “Inhibitory Activities of Rhodanine Derivatives on Plant Growth” (Biosci Biotechnol Biochem, 1996).
